Entries after “also recorded” stand apart in the source; their conditions may differ.
Assays:
[1] = biological target: T1, AAK1 catalytic domain (25–396) in transfected COS-7 cells (Homo sapiens, UniProt Q2M2I8); experiment: AAK1 activity in transfected COS-7 cells (pThr156 of GST-AP2µ2 145–162, immunoblot); type: cell-based; conditions: COS-7 cells expressing AAK1 25–396 and GST-AP2µ2 (145–162), 6 h treatment
T1 construct: transfected with 0.2 µg of pME-His-AAK1 25–396; expressed in transfected cells; host or cells: COS-7 cells
Protocol: To examine the effect of TIM-098a on AAK1 activity in cells, we set up an AAK1 activity assay in the cells as follows. Transfection of expression plasmids for the catalytic domain of AAK1(25–396) together with its artificial substrate (GST-AP2µ2 145–162) into COS-7 cells was followed by detection of phosphorylation of Thr156 via immunoblot analyses with anti-phospho-Thr156 antibody after 6 h-treatment with or without TIM-098a (Fig. 5). […] When we treated AAK1/GST-AP2µ2 (145–162) expressing COS-7 cells with various concentrations of TIM-098a, AAK1-catalyzed Thr156 phosphorylation of GST-AP2µ2 (145–162) was suppressed by TIM-098a treatment in a concentration-dependent manner (Fig. 5b), indicating the cell-membrane permeability and inhibitory effect of the inhibitor on AAK1 activity in the cells.
COS-7 cells and HeLa cells were obtained from American Type Culture Collection. COS-7 cells were cultured in 6-well plates or 10 cm dishes in Dulbecco’s modified Eagle’s medium supplemented with 10% fetal bovine serum at 37 °C in 5% CO2. COS-7 cells in 6-well plates were transfected with 0.2 µg of pME-His-AAK1 25–396 and 1.8 µg of pME-GST-AP2µ2 (145–162) expression plasmids using polyethylenimine “MAX” (Polysciences, Inc. Warrington, PA), according to the manufacturer’s protocol. […]

[2] = biological target: T2, His-tagged AAK1 catalytic domain (25–396) (Homo sapiens, UniProt Q2M2I8); experiment: AAK1 activity assay: phosphorylation of GST-AP2µ2 (145–162) by His-AAK1 25–396 with [γ-32P]ATP; type: biochemical; conditions: for IC50: His-AAK1 25–396, GST-AP2µ2 (145–162), 100 µM [γ-32P]ATP, 30 °C, 20 min, read-out: IC50 against AAK1 activity
T2 construct: Purified His-AAK1 25–396 (200 ng); His10 (N); made in house; host or cells: COS-7 cells
Protocol: AAK1 phosphorylates AP2µ2 at Thr156; therefore, we set up an AAK1 activity assay using GST-fused AP2µ2 fragment (residues 145–162) as a substrate and anti-phospho-Thr156 antibody for detection of the substrate phosphorylation by AAK1.
(§1) Purified His-AAK1 25–396 (200 ng), His-GAK 2–370 (33 ng), His-BIKE 2–396 (87 ng), and His-STK16 2–306 (95 ng) were incubated with 10 µg GST-AP2µ2 (145–162)-His6 in a solution (20 µL) containing 50 mM HEPES pH7.5, 10 mM Mg(CH3COO)2, 1 mM DTT, and 0.1 mM [γ-^32P]ATP or ATP at 30 °C for the indicated time periods (His-GAK 2–370, 10 min; His-BIKE 2–396, 90 min; His-STK16 2–306, 20 min) in the presence or absence of various concentrations of inhibitors (5% DMSO). Then, 15 µL of the sample was spotted onto Whatman P81 paper and washed using 95% EtOH, followed by scintillation counting of the paper to measure the phosphate incorporation into GST-AP2µ2 (145–162)-His6. For immunoblot detection, reactions were terminated by the addition of an equal volume of 2 × SDS-PAGE buffer at various time points, followed by immunoblot analyses using an anti-phospho-AP2µ2 (AP2M1) at Thr156 antibody.

[3] = biological target: T3, CaMKKβ/2 (Rattus norvegicus, UniProt O88831); experiment: CaMKK activity assay: phosphorylation of GST-CaMKIα 1–293KE; type: biochemical; conditions: up to 2.6 µM, immunoblot anti-phospho-CaMKIα (pThr177), 30 °C, 10 min, Fig. 4c
T3 construct: His6; made in house; host or cells: COS-7 cells
Protocol: (§2) Purified His-CaMKKα/1 or His-CaMKKβ/2 (40 ng) was incubated with 10 µg GST-CaMKIα 1–293KE in a solution (20 µL) containing 50 mM HEPES pH7.5, 10 mM Mg (CH3COO)2, 1 mM DTT, 2 mM CaCl2, 6 µM CaM, and 0.1 mM [γ-^32P]ATP at 30 °C for a reaction time of 20 min in the presence or absence of compounds. Then, 15 µL of the sample was spotted onto Whatman P81 paper, followed by scintillation counting of the paper as described above to measure the phosphate incorporation into GST-CaMKIα 1–293KE. Reactions were terminated by the addition of an equal volume of 2 × SDS-PAGE for the immunoblot assay at 30 °C for 10 min using 2.5 ng of CaMKKs in the solution described above containing 0.1 mM ATP, followed by immunoblot analyses using anti-phospho-CaMKIα at the Thr177 antibody.

[4] = biological target: T4, CaMKKα/1 (Rattus norvegicus, UniProt P97756); experiment: as above; type: biochemical; conditions: up to 2.6 µM, immunoblot anti-phospho-CaMKIα (pThr177), 30 °C, 10 min, Fig. 4c
T4 construct: His6; made in house; host or cells: COS-7 cells
Protocol: as §2

[5] = biological target: T5, His-GAK 2–370 (Mus musculus, UniProt Q99KY4); experiment: NAKs activity assay: phosphorylation of GST-AP2µ2 (145–162); type: biochemical; conditions: His-GAK 2–370, 0.1 mM ATP, 30 °C, 10 min, duplicate experiments; read-out: IC50 against GAK activity
T5 construct: His-GAK 2–370 (33 ng); His6 (N); made in house; host or cells: COS-7 cells
T5 sequence (Q99KY4 2-370): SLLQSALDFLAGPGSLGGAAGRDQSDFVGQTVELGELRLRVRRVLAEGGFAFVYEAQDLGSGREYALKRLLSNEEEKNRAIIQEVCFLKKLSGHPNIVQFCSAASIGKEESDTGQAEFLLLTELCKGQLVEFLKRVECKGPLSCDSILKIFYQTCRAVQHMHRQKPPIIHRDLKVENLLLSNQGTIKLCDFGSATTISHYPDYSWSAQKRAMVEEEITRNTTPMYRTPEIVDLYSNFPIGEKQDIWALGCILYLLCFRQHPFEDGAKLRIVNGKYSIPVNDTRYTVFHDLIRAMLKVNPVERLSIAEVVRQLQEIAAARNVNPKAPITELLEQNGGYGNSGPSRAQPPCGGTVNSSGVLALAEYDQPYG
Protocol: as §1
(§3) Supplemental Information S3
(§4) Effect of TIM-98a on NAKs’ activities. Purified His-GAK 2–370 (33 ng, closed triangles), His-BIKE 2–396 (87 ng, closed circles), and His-STK16 2–306 (95 ng, open circles) were incubated with 10 µg GST-AP2µ2 (145–162)-His6 in a solution (20 µL) containing 50 mM HEPES pH7.5, 10 mM Mg(CH3COO)2, 1 mM DTT, and 0.1 mM ATP at 30°C for the indicated time periods (His-GAK 2–370, 10 min; His-Bike 2–396, 90 min; His-STK16 2–306, 20 min) in the presence or absence (-) of various concentrations of TIM-098a. […] NAK’s activities are quantitated by densitometric scanning of the immunoreactive bands and expressed as a percentage of the average value in the absence of the compound (-). Results represent duplicate experiments. Molecular mass markers (kDa) are indicated in the left lanes of immunoblot panels.
(§5) (1 picture or pasted object on this page, not shown here)

[6] = biological target: T6, His-STK16 2–306 (Mus musculus, UniProt O88697); experiment: as above; type: biochemical; conditions: His-STK16 2–306, 0.1 mM ATP, 30 °C, 20 min, duplicate experiments; read-out: IC50 against STK16 activity
T6 construct: His-STK16 2–306 (95 ng); His6 (N); made in house; host or cells: COS-7 cells
Protocol: as §1, §3, §4, §5

[7] = biological target: T7, His-BIKE 2–396 (Mus musculus, UniProt Q91Z96); experiment: as above; type: biochemical; conditions: His-BIKE 2–396, 0.1 mM ATP, 30 °C, 90 min, duplicate experiments; read-out: IC50 against BIKE activity
T7 construct: His-BIKE 2–396 (87 ng); His6 (N); made in house; host or cells: COS-7 cells
Protocol: as §1, §3, §4, §5

[8] = system: HeLa cells overexpressing His-tagged AAK1 (1–863); experiment: Early endosome formation (EEA1-positive vesicles), immunofluorescence microscopy; type: cell-based, human; conditions: 10 µM, 6 h, AAK1-transfected HeLa cells
Protocol: (§6) HeLa cells were cultured in 6-well plates containing Dulbecco’s modified Eagle’s medium supplemented with 10% fetal bovine serum at 37 °C in 5% CO2. The cells were transfected with 2 µg of an AAK1-expression plasmid (pME-His-AAK1 1–863) using polyethylenimine “MAX” according to the manufacturer’s protocol. After 42 h of culture, the cells were cultured with or without 10 µM TIM-098a for 6 h. HeLa cells grown on coverslips were fixed with 3.7% paraformaldehyde in PBS for 15 min and permeabilized with 0.1% Triton X-100 in PBS for 5 min at room temperature. Next, the cells were blocked with 4% bovine serum albumin (BSA) in PBS for 15 min and incubated with primary antibodies diluted in 4% BSA in PBS for 15 min. The cells were washed three times with PBS and incubated for 15 min with the appropriate secondary antibodies conjugated to Alexa fluorophores. After washing, the coverslips were mounted on microscope slides and viewed under an FV1000 confocal microscope (Olympus, Tokyo, Japan). Quantification of EEA1-positive vesicles was performed using ImageJ software. EEA1 fluorescence signals with areas greater than 430 nm^2 were counted as EEA1-positive vesicles using the particle analyzer function in ImageJ. To account for clustered EEA1 signals, the watershed segmentation method was applied in ImageJ before using the particle analyzer.

[9] = system: HeLa cells; experiment: as above; type: cell-based, human; conditions: 10 µM, 6 h, untransfected HeLa cells
Protocol: as §6

[10] = biological target: T4, CaMKKα/1; parameters: method as in PMID 32298102; conditions: cited from earlier work
[11] = biological target: T3, CaMKKβ/2; parameters: method as in PMID 32298102; conditions: cited from earlier work
[12] = biological target: T8, His-tagged AAK1 (Homo sapiens, UniProt Q2M2I8); experiment: Pull-down of His-tagged AAK1 from COS-7 cell extracts with TIM-063–immobilized sepharose (TIM-127-sepharose); type: binding; conditions: COS-7 extracts, elution with 100 µM TIM-063
T8 construct: expressed in transfected cells; host or cells: COS-7 cells
Protocol: COS-7 cells transfected with expression plasmids for His-tagged AAK1 were lysed with buffer A containing protease inhibitors as described above, and then cell lysates (200 µL) were incubated with either TIM-127-coupled sepharose or control sepharose (10 µL) for 30 min. After washing the resin thrice with buffer A (500 µL), samples were eluted from the sepharose resin by incubation with 20 µL of 100 µM TIM-063 in buffer A as previously described, followed by immunoblot analysis.

T2 sequence (Q2M2I8 25-396): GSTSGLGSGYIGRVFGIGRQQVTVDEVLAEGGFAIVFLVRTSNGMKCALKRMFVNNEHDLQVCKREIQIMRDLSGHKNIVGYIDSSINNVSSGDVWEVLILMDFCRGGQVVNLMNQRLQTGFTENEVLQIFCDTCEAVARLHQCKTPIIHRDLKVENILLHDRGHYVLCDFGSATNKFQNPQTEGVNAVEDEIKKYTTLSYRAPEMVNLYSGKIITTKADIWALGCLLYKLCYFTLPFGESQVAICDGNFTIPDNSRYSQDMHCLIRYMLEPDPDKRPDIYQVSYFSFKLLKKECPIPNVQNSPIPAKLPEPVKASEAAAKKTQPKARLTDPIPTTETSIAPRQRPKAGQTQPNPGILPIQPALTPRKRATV
T7 sequence (Q91Z96 2-396): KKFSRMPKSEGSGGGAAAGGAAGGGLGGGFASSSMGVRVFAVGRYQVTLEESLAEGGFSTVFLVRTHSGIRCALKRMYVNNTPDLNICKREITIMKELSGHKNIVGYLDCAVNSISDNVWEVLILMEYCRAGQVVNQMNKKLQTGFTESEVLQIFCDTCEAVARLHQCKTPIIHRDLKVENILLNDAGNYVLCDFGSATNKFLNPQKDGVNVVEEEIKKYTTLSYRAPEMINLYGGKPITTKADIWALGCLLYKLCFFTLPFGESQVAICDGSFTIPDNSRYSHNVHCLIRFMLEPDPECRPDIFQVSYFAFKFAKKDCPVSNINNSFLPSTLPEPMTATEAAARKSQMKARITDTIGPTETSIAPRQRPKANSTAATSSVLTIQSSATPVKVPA
T6 sequence (O88697 2-305 limits assumed): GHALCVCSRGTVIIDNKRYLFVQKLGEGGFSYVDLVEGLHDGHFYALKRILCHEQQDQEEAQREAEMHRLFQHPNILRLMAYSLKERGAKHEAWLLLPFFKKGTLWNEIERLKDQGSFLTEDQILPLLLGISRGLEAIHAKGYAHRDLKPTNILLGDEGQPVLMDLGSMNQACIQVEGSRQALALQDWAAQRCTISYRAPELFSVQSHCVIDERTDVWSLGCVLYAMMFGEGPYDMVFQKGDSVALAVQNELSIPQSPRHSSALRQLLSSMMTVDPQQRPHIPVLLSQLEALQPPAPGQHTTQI
T1 sequence (Q2M2I8 25-396): as the sequence (Q2M2I8 25-396) above

| IC50 [1] | IC50 [2] | AAK1 inhibitory potency relative to TIM-063 ([2]; higher potency than TIM-063) | selectivity for AAK1: higher inhibitory potency than for other NAKs ([2]; versus GAK, BIKE, STK16) | IC50 [5] | IC50 [6] | IC50 [7] | inhibition at 2.6 µM ([2]; 2.6 µM compound) | inhibition at 26 µM ([2]; 26 µM compound) | inhibitory effect on AAK1 relative to that on CaMKK ([2]; lower on AAK1 than on CaMKK) | interaction with AAK1 catalytic domain (His-AAK 25–396) [12] | interaction with His-tagged AAK1 full length (1–863) [12] | SMILES | effect on CaMKKβ/2 activity [3] | effect on CaMKKα/1 activity [4] | number of early endosomes in AAK1-transfected cells [8] | early endosome formation in wild type cells [9] | IC50 [10] | IC50 [11] |
| --- | --- | --- | --- | --- | --- | --- | --- | --- | --- | --- | --- | --- | --- | --- | --- | --- | --- | --- |
| 870 nM | 240 nM | ~ 35 fold | 4–30 fold | 1040 nM | 7150 nM | 5990 nM | – | – | – | – | – | Nc1ccc2c(c1)nc1c3cc(O)cc4cccc(c(=O)n21)c43 [TIM-098a, 11-amino-2-hydroxy-7H-benzo[de]benzo[4,5]imidazo[2,1-a]isoquinolin-7-one] | without any significant inhibitory effects; also recorded: without any inhibitory activity | without any significant inhibitory effects; also recorded: without any inhibitory activity | recovered to the level of untransfected wild type cells | not affected | – | – |
| – | 8510 nM | – | – | – | – | – | ~20% | ~80% | ~ tenfold | strong interaction | weak binding | O=c1c2cccc3c([N+](=O)[O-])c(O)cc(c32)c2nc3ccccc3n12 [TIM-063, 2-hydroxy-3-nitro-7H-benzo[de]benzo[4,5]imidazo[2,1-a]isoquinolin-7-one] | – | – | – | – | 630 nM | 960 nM |

Source: article PMC10954696, “Development of a novel AAK1 inhibitor via Kinobeads-based screening” (Scientific Reports, 2024)
